For 25 molecules, IC50 results are on record in patent publication US11780839B2, “Compounds for treating Huntington's disease” (PTC THERAPEUTICS, INC., priority 2018, dated 2023).

Where only a bound is given, the exact number is not on record here.

This assay deals with Endogenous Huntingtin Protein. In words: Endogenous Huntingtin Protein Assay (ELISA-based Meso Scale Discovery electrochemiluminescence). To be noted: MSD electrochemiluminescence, Table 1. The format is cell-based. The method, then: Compounds of Formula (I) or Formula (II) were tested using the Meso Scale Discovery (MSD) Assay provided in International Application No. PCT/US2016/066042, filed on Dec. 11, 2016 and claiming priority to U.S. Provisional Application 62/265,652 filed on Dec. 10, 2015, the entire contents of which are incorporated herein by reference.
The Endogenous Huntingtin Protein assay used in Example 1 was developed using the ELISA-based MSD electrochemiluminescence assay platform.
Endogenous Huntingtin Protein Assay
Meso Scale Discovery (MSD) 96-well or 384-well plates were coated overnight at 4° C. with MW1 (expanded polyglutamine) or MAB2166 monoclonal antibody (for capture) at a concentration of 1 μg/mL in PBS (30 μL per well). Plates were then washed three times with 300 μL wash buffer (0.05% Tween-20 in PBS) and blocked (100 μL blocking buffer; 5% BSA in PBS) for 4-5 hours at room temperature with rotational shaking and then washed three times with wash buffer.
Samples (25 μL) were transferred to the antibody-coated MSD plate and incubated overnight at 4° C. After removal of the lysates, the plate was washed three times with wash buffer, and 25 μL of #5656S (Cell signaling; rabbit monoclonal) secondary antibody (diluted to 0.25 μg/mL in 0.05% Tween-20 in blocking buffer) was added to each well and incubated with shaking for 1 Hour at room temperature. Following incubation with the secondary antibody, the wells were rinsed with wash buffer after which 25 μL of goat anti-rabbit SULFO TAG secondary detection antibody (required aspect of the MSD system) (diluted to 0.25 μg/mL in 0.05% Tween-20 in blocking buffer) was added to each well and incubated with shaking for 1 hour at room temperature. After rinsing three times with wash buffer, 150 μL of read buffer T with surfactant (MSD) were added to each empty well, and the plate was imaged on a SI 6000 imager (MSD) according to manufacturers' instructions provided for 96- or 384-well plates.
In general terms: An ELISA detects its analyte on a solid surface through an enzyme-linked reagent.
One may read the IC50 as the concentration at which inhibition is half-maximal. A higher IC50 goes with lower potency. In the case of `CN(c1ncc(-c2ccc(-c3cccs3)cc2O)nn1)C1CC(C)(C)NC(C)(C)C1` [Cpd 53, 2-{3-[methyl(2,2,6,6-tetramethylpiperidin-4-yl)amino]-1,2,4-triazin-6-yl}-5-(thiophen-2-yl)phenol], the IC50 lay within 100 to 500 nM. Molecule `Cc1csc(-c2ccc(-c3cnc(N(C)C4CC(C)(C)NC(C)(C)C4)nn3)c(O)c2)c1` [Cpd 54, 2-{3-[methyl(2,2,6,6-tetramethylpiperidin-4-yl)amino]-1,2,4-triazin-6-yl}-5-(4-methylthiophen-2-yl)phenol] showed an IC50 of over 500 nM. In turn, `COc1cnn(-c2ccc(-c3cnc(N(C)C4CC(C)(C)NC(C)(C)C4)nn3)c(O)c2)c1` [Cpd 55, 5-(4-methoxy-1H-pyrazol-1-yl)-2-{3-[methyl(2,2,6,6-tetramethylpiperidin-4-yl)amino]-1,2,4-triazin-6-yl}phenol] came in with an IC50 of at most 100 nM. The molecule `CN(c1ncc(-c2ccc(-c3ccn(C)c(=O)c3)cc2O)nn1)C1CC(C)(C)NC(C)(C)C1` [Cpd 56] returned a half-maximal inhibitory concentration (IC50) of at most 100 nM.

As to `CN(c1ncc(-c2ccc(-c3c[nH]nc3Cl)cc2O)nn1)C1CC(C)(C)NC(C)(C)C1` [Cpd 57, 5-(3-chloro-1H-pyrazol-4-yl)-2-{3-[methyl(2,2,6,6-tetramethylpiperidin-4-yl)amino]-1,2,4-triazin-6-yl}phenol], the concentration for half-maximal inhibition (IC50) was at most 100 nM.

Regarding `CN(c1ncc(-c2ccc(-c3nccs3)cc2O)nn1)C1CC(C)(C)NC(C)(C)C1` [Cpd 58, 2-{3-[methyl(2,2,6,6-tetramethylpiperidin-4-yl)amino]-1,2,4-triazin-6-yl}-5-(1,3-thiazol-2-yl)phenol], the IC50 was at most 100 nM. Under `CN(c1ncc(-c2ccc(-n3cnc(Cl)c3)cc2O)nn1)C1CC(C)(C)NC(C)(C)C1` [Cpd 59, 5-(4-chloro-1H-imidazol-1-yl)-2-{3-[methyl(2,2,6,6-tetramethylpiperidin-4-yl)amino]-1,2,4-triazin-6-yl}phenol] stands at most 100 nM.

Take `CN(c1ncc(-c2ccc(-c3ccnnc3)cc2O)nn1)C1CC(C)(C)NC(C)(C)C1` [Cpd 60, 2-{3-[methyl(2,2,6,6-tetramethylpiperidin-4-yl)amino]-1,2,4-triazin-6-yl}-5-(pyridazin-4-yl)phenol]: the half-maximal inhibitory concentration (IC50) was at most 100 nM. `Cc1cc(-c2ccc(-c3cnc(N(C)C4CC(C)(C)NC(C)(C)C4)nn3)c(O)c2)cnn1` [Cpd 61, 5-(6-methylpyridazin-4-yl)-2-{3-[methyl(2,2,6,6-tetramethylpiperidin-4-yl)amino]-1,2,4-triazin-6-yl}phenol] returned an IC50 of at most 100 nM. In turn, `CN(c1ncc(-c2ccc(-c3ncn(C)n3)cc2O)nn1)C1CC(C)(C)NC(C)(C)C1` [Cpd 62, 2-{3-[methyl(2,2,6,6-tetramethylpiperidin-4-yl)amino]-1,2,4-triazin-6-yl}-5-(1-methyl-1H-1,2,4-triazol-3-yl)phenol] registered an IC50 of 100 to 500 nM. Under `CN(c1ncc(-c2ccc(-n3nccn3)cc2O)nn1)C1CC(C)(C)NC(C)(C)C1` [Cpd 63, 2-{3-[methyl(2,2,6,6-tetramethylpiperidin-4-yl)amino]-1,2,4-triazin-6-yl}-5-(2H-1,2,3-triazol-2-yl)phenol] stands at most 100 nM; under `Cc1ncc(-c2ccc(-c3cnc(N(C)C4CC(C)(C)NC(C)(C)C4)nn3)c(O)c2)s1` [Cpd 64, 2-{3-[methyl(2,2,6,6-tetramethylpiperidin-4-yl)amino]-1,2,4-triazin-6-yl}-5-(2-methyl-1,3-thiazol-5-yl)phenol], at most 100 nM. As for `CN(c1ncc(-c2ccc(-c3ncns3)cc2O)nn1)C1CC(C)(C)NC(C)(C)C1` [Cpd 65, 2-{3-[methyl(2,2,6,6-tetramethylpiperidin-4-yl)amino]-1,2,4-triazin-6-yl}-5-(1,2,4-thiadiazol-5-yl)phenol], the IC50 was at most 100 nM. In turn, `Cc1nsc(-c2ccc(-c3cnc(N(C)C4CC(C)(C)NC(C)(C)C4)nn3)c(O)c2)n1` [Cpd 66, 2-{3-[methyl(2,2,6,6-tetramethylpiperidin-4-yl)amino]-1,2,4-triazin-6-yl}-5-(3-methyl-1,2,4-thiadiazol-5-yl)phenol] yielded a concentration for half-maximal inhibition (IC50) of at most 100 nM.

The molecule `CN(c1ncc(-c2ccc(-c3cn[nH]c3)cc2O)nn1)C1CC(C)(C)NC(C)(C)C1F` (stereo not shown) [Cpd 67, 2-{3-[(3-fluoro-2,2,6,6-tetramethylpiperidin-4-yl)(methyl)amino]-1,2,4-triazin-6-yl}-5-(1H-pyrazol-4-yl)phenol] displayed an IC50 of 100 to 500 nM. Take `CC(=O)c1cnn(-c2ccc(-c3cnc(N(C)C4CC(C)(C)NC(C)(C)C4)nn3)c(O)c2)c1` [Cpd 68, 1-[1-(3-hydroxy-4-{3-[methyl(2,2,6,6-tetramethylpiperidin-4-yl)amino]-1,2,4-triazin-6-yl}phenyl)-1H-pyrazol-4-yl]ethan-l-one]: the IC50 was at most 100 nM.

The molecule `Cc1cnn(-c2ccc(-c3cnc(N(C)C4CC(C)(C)NC(C)(C)C4)nn3)c(O)c2)n1` [Cpd 69, 2-{3-[methyl(2,2,6,6-tetramethylpiperidin-4-yl)amino]-1,2,4-triazin-6-yl}-5-(4-methyl-2H-1,2,3-triazol-2-yl)phenol] showed an IC50 of at most 100 nM.

`CN(c1ncc(-c2ccc(-c3cccnc3)cc2O)nn1)C1CC(C)(C)NC(C)(C)C1` [Cpd 70, 2-{3-[methyl(2,2,6,6-tetramethylpiperidin-4-yl)amino]-1,2,4-triazin-6-yl}-5-(pyridin-3-yl)phenol] returned an IC50 of 100 to 500 nM. Consider `CN(c1ncc(-c2ccc(-c3ccccn3)cc2O)nn1)C1CC(C)(C)NC(C)(C)C1` [Cpd 71, 2-{3-[methyl(2,2,6,6-tetramethylpiperidin-4-yl)amino]-1,2,4-triazin-6-yl}-5-(pyridin-2-yl)phenol], for which the IC50 was at most 100 nM.

In turn, `CC1(C)CC(Oc2ncc(-c3ccc(-c4c[nH]nc4F)cc3O)nn2)CC(C)(C)N1` [Cpd 72, 5-(3-fluoro-1H-pyrazol-4-yl)-2-{3-[(2,2,6,6-tetramethylpiperidin-4-yl)oxy]-1,2,4-triazin-6-yl}phenol] returned a 50% inhibitory concentration (IC50) of at most 100 nM. Under `CC1(C)CC(Nc2ncc(-c3ccc(-c4c[nH]nc4F)cc3O)nn2)CC(C)(C)N1` [Cpd 73, 5-(3-fluoro-1H-pyrazol-4-yl)-2-{3-[(2,2,6,6-tetramethylpiperidin-4-yl)amino]-1,2,4-triazin-6-yl}phenol] stands at most 100 nM.

The molecule `Cc1ncc(-c2ccc(-c3cnc(N(C)C4CC(C)(C)NC(C)(C)C4)nn3)c(O)c2)o1` [Cpd 74, 5-(2-methyl-1,3-oxazol-5-yl)-2-{3-[methyl(2,2,6,6-tetramethylpiperidin-4-yl)amino]-1,2,4-triazin-6-yl}phenol] yielded a half-inhibitory concentration (IC50) of at most 100 nM. As to `CN(c1ncc(-c2ccc(-c3cn(C)cn3)cc2O)nn1)C1CC(C)(C)NC(C)(C)C1` [Cpd 75, 5-(1-methyl-1H-imidazol-4-yl)-2-{3-[methyl(2,2,6,6-tetramethylpiperidin-4-yl)amino]-1,2,4-triazin-6-yl}phenol], the IC50 was over 500 nM. With `CN(c1ncc(-c2ccc(-c3ccn(C)n3)cc2O)nn1)C1CC(C)(C)NC(C)(C)C1` [Cpd 76, 5-(1-methyl-1H-pyrazol-3-yl)-2-{3-[methyl(2,2,6,6-tetramethylpiperidin-4-yl)amino]-1,2,4-triazin-6-yl}phenol] the figure was at most 100 nM; with `CN1[C@@H]2CCC[C@H]1CC(Nc1ncc(-c3ccc(-c4cn[nH]c4)cc3O)nn1)C2` (stereo partly drawn) [Cpd 77, 2-{3-{[(1R,3s,5S)-9-methyl-9-azabicyclo[3.3.1]nonan-3-yl]amino}-1,2,4-triazin-6-yl)-5-(1H-pyrazol-4-yl)phenol], at most 100 nM.
